Data as given in ChEMBL document CHEMBL1201862, “PubChem BioAssay data set” (2004).
Values joined by “and” are separate entries in the source; they are usually repeats but may differ in a detail not shown here. Equal values may be shown once.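 Protocol summary: plate cells (96-well), add compound at 5 concentrations, incubate 48 h, interpolate endpoints linearly. GI50: concentration for 50% inhibition of growth.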 Active and inactive are the calls of the source. Cut-off read from the data, not from the text of the source: active = GI50 up to about 1.1 µM and inactive = higher.

Key:
Assay in all cases: growth of human tumour cells (NCI), 48 h
OVCAR-8 = system: OVCAR-8
HOP-62 = system: HOP-62
DU-145 = system: DU-145
RXF 393 = system: RXF 393
HL-60 = system: HL-60
CCRF-CEM = system: CCRF-CEM
M14 = system: M14
BT-549 = system: BT-549
HCT-116 = system: HCT-116
CAKI-1 = system: CAKI-1
SW-620 = system: SW-620
EKVX = system: EKVX
HT-29 = system: HT-29
HCT-15 = system: HCT-15
LOX IMVI = system: LOX IMVI
PC-3 = system: PC-3
SN12C = system: SN12C
UACC-257 = system: UACC-257
COLO 205 = system: COLO 205
SK-MEL-2 = system: SK-MEL-2
SK-MEL-28 = system: SK-MEL-28
MDA-MB-231 = system: MDA-MB-231
NCI-H23 = system: NCI-H23
HCC 2998 = system: HCC 2998
MDA-N = system: MDA-N
NCI-H226 = system: NCI-H226
K562 = system: K562
TK-10 = system: TK-10
ACHN = system: ACHN
OVCAR-3 = system: OVCAR-3
NCI-H460 = system: NCI-H460
NCI-H522 = system: NCI-H522
A549 = system: A549
U-251 = system: U-251
MDA-MB-435 = system: MDA-MB-435
OVCAR-4 = system: OVCAR-4
Malme-3M = system: Malme-3M
UO-31 = system: UO-31
SK-OV-3 = system: SK-OV-3
HOP-92 = system: HOP-92
UACC-62 = system: UACC-62
A498 = system: A498
SR = system: SR
MOLT-4 = system: MOLT-4
KM12 = system: KM12
MCF7 = system: MCF7
SNB-75 = system: SNB-75
786-0 = system: 786-0
SF-268 = system: SF-268
OVCAR-5 = system: OVCAR-5
T47D = system: T47D
SK-MEL-5 = system: SK-MEL-5
NCI/ADR-RES = system: NCI/ADR-RES
Hs-578T = system: Hs-578T
SF-539 = system: SF-539
IGROV-1 = system: IGROV-1
SNB-19 = system: SNB-19
RPMI-8226 = system: RPMI-8226
SF-295 = system: SF-295

N=C(N)SCc1ccc(Cl)c2ccccc12.O=[N+]([O-])c1ccc(O)c([N+](=O)[O-])c1
GI50 (OVCAR-8): 22.1 µM (inactive)
GI50 (HOP-62): 14.1 µM (inactive)
GI50 (DU-145): 12.9 µM (inactive)
GI50 (RXF 393): 8.02 µM (inactive)
GI50 (HL-60): 2.82 µM (inactive)
GI50 (CCRF-CEM): 3.23 µM (inactive)
GI50 (M14): 13 µM (inactive)
GI50 (BT-549): 15.6 µM (inactive)
GI50 (HCT-116): 13.4 µM (inactive)
GI50 (CAKI-1): 11.7 µM (inactive)
GI50 (SW-620): 11.7 µM (inactive)
GI50 (EKVX): 10.3 µM (inactive)
GI50 (HT-29): 11.4 µM (inactive)
GI50 (HCT-15): 14.5 µM
GI50 (LOX IMVI): 14.9 µM (inactive)
GI50 (PC-3): 12.6 µM (inactive)
GI50 (SN12C): 11 µM (inactive)
GI50 (UACC-257): 4.19 µM (inactive)
GI50 (COLO 205): 6.81 µM (inactive)
GI50 (SK-MEL-2): 11.6 µM (inactive)
GI50 (SK-MEL-28): 12.6 µM (inactive)
GI50 (MDA-MB-231): 12.7 µM (inactive)
GI50 (NCI-H23): 12.6 µM (inactive)
GI50 (HCC 2998): 2.04 µM (inactive)
GI50 (MDA-N): 11.1 µM (inactive)
GI50 (NCI-H226): 12.4 µM (inactive)
GI50 (K562): 0.421 µM (active)
GI50 (TK-10): 6.84 µM (inactive)
GI50 (ACHN): 12.9 µM (inactive)
GI50 (OVCAR-3): 8.95 µM (inactive)
GI50 (NCI-H460): 7.55 µM (inactive)
GI50 (NCI-H522): 7.78 µM (inactive)
GI50 (A549): 16.9 µM (inactive)
GI50 (U-251): 11.4 µM (inactive)
GI50 (MDA-MB-435): 8.24 µM (inactive)
GI50 (OVCAR-4): 10.9 µM (inactive)
GI50 (Malme-3M): 10 µM (inactive)
GI50 (UO-31): 12.3 µM (inactive)
GI50 (SK-OV-3): 15.3 µM (inactive)
GI50 (HOP-92): 6.67 µM (inactive)
GI50 (UACC-62): 12.5 µM (inactive)
GI50 (A498): 9.4 µM (inactive)
GI50 (SR): 1.04 µM (active)
GI50 (MOLT-4): 1.4 µM (inactive)
GI50 (KM12): 12.3 µM (inactive)
GI50 (MCF7): 10 µM (inactive)
GI50 (SNB-75): 4.56 µM (inactive)
GI50 (786-0): 12.4 µM (inactive)
GI50 (SF-268): 15.4 µM (inactive)
GI50 (OVCAR-5): 13.5 µM (inactive)
GI50 (T47D): 5.35 µM (inactive)
GI50 (SK-MEL-5): 8.61 µM (inactive)
GI50 (NCI/ADR-RES): 16.7 µM (inactive)
GI50 (Hs-578T): 20.7 µM (inactive)
GI50 (SF-539): 5.2 µM (inactive)
GI50 (IGROV-1): 14.2 µM (inactive)
GI50 (SNB-19): 16.2 µM (inactive)
GI50 (RPMI-8226): 1.32 µM (inactive)
GI50 (SF-295): 9.91 µM (inactive)

COc1cc2c3c(cc(Cl)nc3c1OC)C(O)(CC(=O)c1ccccc1)C(=O)N2 (configuration not stated)
GI50 (OVCAR-8): 14 µM (inactive)
GI50 (HOP-62): 19.2 µM (inactive)
GI50 (DU-145): 16.2 µM (inactive)
GI50 (RXF 393): 13.4 µM (inactive)
GI50 (HL-60): 1.49 µM (inactive)
GI50 (CCRF-CEM): 1.64 µM (inactive)
GI50 (M14): 16.4 µM (inactive)
GI50 (BT-549): 16.4 µM (inactive)
GI50 (HCT-116): 4.69 µM (inactive)
GI50 (CAKI-1): 17.5 µM (inactive)
GI50 (SW-620): 4 µM (inactive)
GI50 (EKVX): 5.14 µM (inactive)
GI50 (HT-29): 21.7 µM (inactive)
GI50 (HCT-15): 21.5 µM
GI50 (LOX IMVI): 7.01 µM (inactive)
GI50 (PC-3): 15.3 µM (inactive)
GI50 (SN12C): 6.79 µM (inactive)
GI50 (UACC-257): 8.15 µM (inactive)
GI50 (COLO 205): 24.3 µM (inactive)
GI50 (SK-MEL-2): 15.1 µM (inactive)
GI50 (SK-MEL-28): 16 µM (inactive)
GI50 (MDA-MB-231): 13.8 µM (inactive)
GI50 (NCI-H23): 17 µM (inactive)
GI50 (HCC 2998): 18.5 µM (inactive)
GI50 (MDA-N): 1.93 µM (inactive)
GI50 (NCI-H226): 21.5 µM (inactive)
GI50 (K562): 4.79 µM (inactive)
GI50 (TK-10): 18.1 µM (inactive)
GI50 (ACHN): 14.9 µM (inactive)
GI50 (OVCAR-3): 15.6 µM (inactive)
GI50 (NCI-H460): 21 µM (inactive)
GI50 (NCI-H522): 2.89 µM (inactive)
GI50 (A549): 18 µM (inactive)
GI50 (U-251): 17.1 µM (inactive)
GI50 (MDA-MB-435): 1.93 µM (inactive)
GI50 (OVCAR-4): 2.35 µM (inactive)
GI50 (Malme-3M): 2.38 µM (inactive)
GI50 (UO-31): 13.3 µM (inactive)
GI50 (SK-OV-3): 17.4 µM (inactive)
GI50 (HOP-92): 1.94 µM (inactive)
GI50 (UACC-62): 6.18 µM (inactive)
GI50 (A498): 18.4 µM (inactive)
GI50 (SR): 4.65 µM (inactive)
GI50 (MOLT-4): 1.71 µM (inactive)
GI50 (KM12): 17.3 µM (inactive)
GI50 (MCF7): 1.88 µM (inactive)
GI50 (SNB-75): 14.8 µM (inactive)
GI50 (786-0): 8.93 µM (inactive)
GI50 (SF-268): 4.94 µM (inactive)
GI50 (OVCAR-5): 19.1 µM (inactive)
GI50 (T47D): 3.56 µM (inactive)
GI50 (SK-MEL-5): 15.9 µM (inactive)
GI50 (NCI/ADR-RES): 24.8 µM (inactive)
GI50 (Hs-578T): 21.7 µM (inactive)
GI50 (SF-539): 0.995 µM (active)
GI50 (IGROV-1): 13.2 µM (inactive)
GI50 (SNB-19): 17.7 µM (inactive)
GI50 (RPMI-8226): 2.55 µM (inactive)
GI50 (SF-295): 17.9 µM (inactive)

CC(=O)Oc1ccc2c(C)cc(=O)oc2c1
GI50 (OVCAR-8): > 100 µM (inactive)
GI50 (HOP-62): > 100 µM (inactive)
GI50 (DU-145): > 100 µM (inactive)
GI50 (RXF 393): > 100 µM (inactive)
GI50 (HL-60): > 100 µM (inactive)
GI50 (CCRF-CEM): > 100 µM (inactive)
GI50 (M14): > 100 µM (inactive)
GI50 (BT-549): > 100 µM (inactive)
GI50 (HCT-116): > 100 µM (inactive)
GI50 (CAKI-1): > 100 µM (inactive)
GI50 (SW-620): > 100 µM (inactive)
GI50 (EKVX): > 100 µM (inactive)
GI50 (HT-29): > 100 µM (inactive)
GI50 (HCT-15): > 100 µM
GI50 (LOX IMVI): > 100 µM (inactive)
GI50 (PC-3): > 100 µM (inactive)
GI50 (SN12C): > 100 µM (inactive)
GI50 (UACC-257): > 100 µM (inactive)
GI50 (COLO 205): > 100 µM (inactive)
GI50 (SK-MEL-2): > 100 µM (inactive)
GI50 (SK-MEL-28): > 100 µM (inactive)
GI50 (MDA-MB-231): > 100 µM (inactive)
GI50 (NCI-H23): > 100 µM (inactive)
GI50 (HCC 2998): > 100 µM (inactive)
GI50 (MDA-N): > 100 µM (inactive)
GI50 (NCI-H226): > 100 µM (inactive)
GI50 (K562): > 100 µM (inactive)
GI50 (TK-10): > 100 µM (inactive)
GI50 (ACHN): > 100 µM (inactive)
GI50 (OVCAR-3): > 100 µM (inactive)
GI50 (NCI-H460): > 100 µM (inactive)
GI50 (NCI-H522): > 100 µM (inactive)
GI50 (A549): > 100 µM (inactive)
GI50 (U-251): > 100 µM (inactive)
GI50 (MDA-MB-435): > 100 µM (inactive)
GI50 (OVCAR-4): > 100 µM (inactive)
GI50 (Malme-3M): > 100 µM (inactive)
GI50 (UO-31): > 100 µM (inactive)
GI50 (SK-OV-3): > 100 µM (inactive)
GI50 (HOP-92): > 100 µM (inactive)
GI50 (UACC-62): > 100 µM (inactive)
GI50 (A498): > 100 µM (inactive)
GI50 (SR): > 100 µM (inactive)
GI50 (MOLT-4): > 100 µM (inactive)
GI50 (KM12): > 100 µM (inactive)
GI50 (MCF7): > 100 µM (inactive)
GI50 (SNB-75): > 100 µM (inactive)
GI50 (786-0): > 100 µM (inactive)
GI50 (SF-268): > 100 µM (inactive)
GI50 (OVCAR-5): > 100 µM (inactive)
GI50 (T47D): > 100 µM (inactive) and 61.7 µM (inactive)
GI50 (SK-MEL-5): > 100 µM (inactive)
GI50 (NCI/ADR-RES): > 100 µM (inactive)
GI50 (Hs-578T): > 100 µM (inactive)
GI50 (SF-539): > 100 µM (inactive)
GI50 (IGROV-1): > 100 µM (inactive)
GI50 (SNB-19): > 100 µM (inactive)
GI50 (RPMI-8226): > 100 µM (inactive)
GI50 (SF-295): > 100 µM (inactive)
